The source of these data is ChEMBL document CHEMBL4414648, “Novel Benzohydroxamate-Based Potent and Selective Histone Deacetylase 6 (HDAC6) Inhibitors Bearing a Pentaheterocyclic Scaffold: Design, Synthesis, and Biological Evaluation” (J Med Chem, 2019).

Experiment [1] has as its target Histone deacetylase 3/Nuclear receptor corepressor 2 (HDAC3/NCoR2) (Homo sapiens, UniProt O15379). Description: Inhibition of C-terminal His-tagged human HDAC3 (1 to 428 residues)/N-terminal GST tagged human NCOR2 (395 to 489) expressed in baculovirus infected sf9 insect cells pretreated with compound followed by Fluor de Lys deacetylase substrate addition by fluorescence method.

For experiment [2], the target named is T1, Protein deacetylase HDAC6 (Homo sapiens, UniProt Q9UBN7).
T1 sequence (Q9UBN7 whole entry): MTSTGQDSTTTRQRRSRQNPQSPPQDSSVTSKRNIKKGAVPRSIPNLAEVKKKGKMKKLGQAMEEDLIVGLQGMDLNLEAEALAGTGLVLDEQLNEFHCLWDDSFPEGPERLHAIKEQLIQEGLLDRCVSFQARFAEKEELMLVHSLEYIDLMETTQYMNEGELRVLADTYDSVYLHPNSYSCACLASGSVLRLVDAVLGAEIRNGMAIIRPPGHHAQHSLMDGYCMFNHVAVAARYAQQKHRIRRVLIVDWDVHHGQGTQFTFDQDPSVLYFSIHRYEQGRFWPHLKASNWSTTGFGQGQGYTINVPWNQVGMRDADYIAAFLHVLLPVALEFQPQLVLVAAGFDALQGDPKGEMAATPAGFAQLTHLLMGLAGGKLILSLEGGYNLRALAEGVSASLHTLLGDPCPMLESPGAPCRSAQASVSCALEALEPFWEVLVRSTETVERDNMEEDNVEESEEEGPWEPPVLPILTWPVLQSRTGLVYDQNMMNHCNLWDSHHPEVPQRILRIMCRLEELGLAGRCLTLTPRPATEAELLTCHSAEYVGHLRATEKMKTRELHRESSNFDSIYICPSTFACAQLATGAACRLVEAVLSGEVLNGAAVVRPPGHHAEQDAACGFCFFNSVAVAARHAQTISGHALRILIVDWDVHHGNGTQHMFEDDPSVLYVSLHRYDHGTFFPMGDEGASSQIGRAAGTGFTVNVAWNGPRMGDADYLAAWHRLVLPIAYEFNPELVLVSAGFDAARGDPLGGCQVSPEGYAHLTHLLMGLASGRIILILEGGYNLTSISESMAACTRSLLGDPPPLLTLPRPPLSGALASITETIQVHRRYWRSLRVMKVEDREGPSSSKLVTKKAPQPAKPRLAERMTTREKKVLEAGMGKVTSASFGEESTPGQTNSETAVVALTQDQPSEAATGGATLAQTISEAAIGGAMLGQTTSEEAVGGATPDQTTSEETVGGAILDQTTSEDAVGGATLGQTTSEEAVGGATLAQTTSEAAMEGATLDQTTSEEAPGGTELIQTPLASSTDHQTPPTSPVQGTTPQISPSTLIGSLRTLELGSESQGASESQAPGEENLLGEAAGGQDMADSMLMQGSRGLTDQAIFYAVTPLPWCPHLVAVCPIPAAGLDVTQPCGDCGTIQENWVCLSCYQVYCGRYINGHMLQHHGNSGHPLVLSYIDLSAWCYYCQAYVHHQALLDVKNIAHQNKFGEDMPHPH
The experiment is described as follows: biochemical.
Description: Inhibition of recombinant full length human N-terminal GST-tagged HDAC6 expressed in baculovirus infected sf9 insect cells pretreated with compound followed by Fluor de Lys deacetylase substrate addition by fluorescence method

SMILES strings stand for the structures.

Histone deacetylase 3/Nuclear receptor corepressor 2 (HDAC3/NCoR2), sequence (O15379 whole entry, the tested form may be a part): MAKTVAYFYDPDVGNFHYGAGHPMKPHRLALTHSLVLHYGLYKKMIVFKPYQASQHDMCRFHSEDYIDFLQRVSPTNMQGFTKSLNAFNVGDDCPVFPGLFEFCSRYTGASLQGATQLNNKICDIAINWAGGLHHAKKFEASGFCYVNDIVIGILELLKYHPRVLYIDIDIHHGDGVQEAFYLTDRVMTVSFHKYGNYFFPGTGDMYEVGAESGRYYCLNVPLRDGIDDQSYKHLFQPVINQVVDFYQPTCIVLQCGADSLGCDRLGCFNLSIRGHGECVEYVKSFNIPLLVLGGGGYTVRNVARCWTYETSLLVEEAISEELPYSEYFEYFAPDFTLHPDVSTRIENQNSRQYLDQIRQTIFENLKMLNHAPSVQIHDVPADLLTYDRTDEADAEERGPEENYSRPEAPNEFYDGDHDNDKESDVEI
Histone deacetylase 3/Nuclear receptor corepressor 2 (HDAC3/NCoR2), sequence (Q9Y618 whole entry, further chain, the tested form may be a part): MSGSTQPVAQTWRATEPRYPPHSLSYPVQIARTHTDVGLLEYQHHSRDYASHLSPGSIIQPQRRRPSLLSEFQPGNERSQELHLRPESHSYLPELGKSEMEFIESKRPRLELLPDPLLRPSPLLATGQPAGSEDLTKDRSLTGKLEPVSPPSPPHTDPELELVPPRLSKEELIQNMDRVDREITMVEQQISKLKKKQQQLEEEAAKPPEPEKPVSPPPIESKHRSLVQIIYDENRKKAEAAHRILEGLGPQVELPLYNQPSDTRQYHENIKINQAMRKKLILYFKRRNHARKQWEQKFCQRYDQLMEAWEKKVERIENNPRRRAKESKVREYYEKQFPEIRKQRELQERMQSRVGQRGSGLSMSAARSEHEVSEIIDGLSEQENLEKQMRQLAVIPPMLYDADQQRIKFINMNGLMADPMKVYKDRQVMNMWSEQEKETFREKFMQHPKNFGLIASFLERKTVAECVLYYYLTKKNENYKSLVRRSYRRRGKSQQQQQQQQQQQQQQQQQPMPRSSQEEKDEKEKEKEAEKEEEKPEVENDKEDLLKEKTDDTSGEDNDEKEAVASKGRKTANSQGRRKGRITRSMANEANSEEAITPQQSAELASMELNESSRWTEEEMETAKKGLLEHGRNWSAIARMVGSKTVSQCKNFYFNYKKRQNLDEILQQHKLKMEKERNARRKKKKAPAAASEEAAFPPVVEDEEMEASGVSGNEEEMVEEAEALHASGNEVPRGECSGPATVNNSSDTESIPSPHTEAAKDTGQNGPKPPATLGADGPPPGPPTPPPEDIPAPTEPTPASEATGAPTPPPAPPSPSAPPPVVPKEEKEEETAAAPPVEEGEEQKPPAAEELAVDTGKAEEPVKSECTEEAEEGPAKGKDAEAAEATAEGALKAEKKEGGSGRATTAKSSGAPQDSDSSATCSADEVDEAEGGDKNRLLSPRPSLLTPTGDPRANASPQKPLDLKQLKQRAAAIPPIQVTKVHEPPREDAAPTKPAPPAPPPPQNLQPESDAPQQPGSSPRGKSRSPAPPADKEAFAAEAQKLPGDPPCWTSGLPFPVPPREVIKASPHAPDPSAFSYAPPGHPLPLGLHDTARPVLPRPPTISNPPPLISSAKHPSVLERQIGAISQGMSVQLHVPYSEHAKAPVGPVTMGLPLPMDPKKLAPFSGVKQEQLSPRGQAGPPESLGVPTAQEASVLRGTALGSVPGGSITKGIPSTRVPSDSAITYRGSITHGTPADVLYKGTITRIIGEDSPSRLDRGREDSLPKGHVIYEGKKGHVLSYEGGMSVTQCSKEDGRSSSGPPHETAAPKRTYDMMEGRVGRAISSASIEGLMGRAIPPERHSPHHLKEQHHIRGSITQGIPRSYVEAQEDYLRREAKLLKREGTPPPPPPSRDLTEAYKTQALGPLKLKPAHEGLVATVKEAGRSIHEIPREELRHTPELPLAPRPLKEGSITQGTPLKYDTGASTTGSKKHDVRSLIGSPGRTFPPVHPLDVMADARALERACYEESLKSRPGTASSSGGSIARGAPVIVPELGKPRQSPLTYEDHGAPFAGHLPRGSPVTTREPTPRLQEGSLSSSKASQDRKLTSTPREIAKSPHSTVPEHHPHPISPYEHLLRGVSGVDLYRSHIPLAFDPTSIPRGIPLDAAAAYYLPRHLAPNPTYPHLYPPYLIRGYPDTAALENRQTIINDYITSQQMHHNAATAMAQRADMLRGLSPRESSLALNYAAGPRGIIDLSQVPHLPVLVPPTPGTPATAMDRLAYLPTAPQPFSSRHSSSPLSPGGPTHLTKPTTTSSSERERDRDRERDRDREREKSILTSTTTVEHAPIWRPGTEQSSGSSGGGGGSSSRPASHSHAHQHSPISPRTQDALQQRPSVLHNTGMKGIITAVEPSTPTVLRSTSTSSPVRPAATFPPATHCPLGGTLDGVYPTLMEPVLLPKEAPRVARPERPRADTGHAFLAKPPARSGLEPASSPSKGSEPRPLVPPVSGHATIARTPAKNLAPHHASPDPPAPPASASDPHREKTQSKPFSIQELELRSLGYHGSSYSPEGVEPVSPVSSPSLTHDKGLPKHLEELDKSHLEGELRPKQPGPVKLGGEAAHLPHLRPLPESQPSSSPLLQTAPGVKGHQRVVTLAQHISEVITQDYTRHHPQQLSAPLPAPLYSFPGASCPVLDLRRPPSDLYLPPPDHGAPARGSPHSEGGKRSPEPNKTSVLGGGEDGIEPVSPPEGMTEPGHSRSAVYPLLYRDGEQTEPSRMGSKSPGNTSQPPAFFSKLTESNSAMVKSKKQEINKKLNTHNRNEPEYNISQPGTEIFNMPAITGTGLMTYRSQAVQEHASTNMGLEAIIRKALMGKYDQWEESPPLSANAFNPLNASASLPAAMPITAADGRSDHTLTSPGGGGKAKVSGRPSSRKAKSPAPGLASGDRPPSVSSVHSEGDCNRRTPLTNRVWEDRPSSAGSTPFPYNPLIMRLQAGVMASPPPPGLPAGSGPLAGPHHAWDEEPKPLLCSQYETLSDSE

Take `O=C(NO)c1ccc(Cc2nnc[nH]2)cc1`: the IC50 in experiment [1] is 2.9 µM; in experiment [2], 0.198 µM. `NCc1ccc(C(=O)NO)cc1`: the IC50 in experiment [1] is 5 µM. On to `Nc1ccc(C(=O)NO)cc1`, for which the results for the IC50 in experiment [1] and in experiment [2] were 18.4 µM and 1.39 µM, respectively.

In the case of `O=C(NO)c1ccccc1` [BENZOHYDROXAMATE], the values for the IC50 in experiment [1] and in experiment [2] were 71.6 µM and 2.37 µM, respectively.

As usually defined, the IC50 is the point on the concentration scale where inhibition reaches its midpoint.
